Measured values from PubChem BioAssay AID1963425 (Molecular Pharmacology Branch, DTP, NCI, 2024).
pIC50: −log10 of the molar value. Values joined by “and” are separate entries in the source; they are usually repeats but may differ in a detail not shown here. Equal values may be shown once.

System: 323965-272-R-J2-PDC complex spheroid growth, % test/control
Assay: Anticancer human tumor 323965-272-R-J2-PDC patient-derived pancreatic carcinoma cell line growth inhibition [Asc]
Conditions: for viability, T/C: stronger effect = lower value; active = viability on the fitted dose curve at most 10% of control; inactive = the rest
Procedure, shortened: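 Spheroid model: tumor line + HUVEC + hMSC. Single agents and combinations; top conc. at/near clinical Cmax (10 microM if undetermined), half-log dilutions. DMSO stocks at 800-fold test concentration.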

[1] = curve of first compound, second compound 0.00316 µM
[2] = curve of first compound, second compound 0.01 µM
[3] = curve of first compound, second compound 0.0316 µM
[4] = curve of first compound, second compound 0.1 µM
[5] = curve of first compound, second compound 0.316 µM
[6] = curve of first compound, second compound 1 µM
[7] = second compound 0.00316 µM, first compound 0.0316 µM
[8] = second compound 0.00316 µM, first compound 0.1 µM
[9] = second compound 0.01 µM, first compound 0.0316 µM
[10] = second compound 0.01 µM, first compound 0.1 µM
[11] = second compound 0.0316 µM, first compound 0.0316 µM
[12] = second compound 0.0316 µM, first compound 0.1 µM
[13] = second compound 0.1 µM, first compound 0.0316 µM
[14] = second compound 0.1 µM, first compound 0.1 µM
[15] = second compound 0.316 µM, first compound 0.0316 µM
[16] = second compound 0.316 µM, first compound 0.1 µM
[17] = second compound 1 µM, first compound 0.0316 µM
[18] = second compound 1 µM, first compound 0.1 µM
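Note: compound exposure lasted 7 days starting three days after spheroid seeding.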
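Throughout, for viability, T/C: 100% = DMSO vehicle control wells with viability set relative to vehicle.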

NC1CCC(NC2CC2c2ccccc2)CC1 (stereo unspecified) + CNC(C)C(=O)NC1CN(S(=O)(=O)c2cccc(S(=O)(=O)N3CCC4CCC(C(=O)NC(c5ccccc5)c5ccccc5)N4C(=O)C(NC(=O)C(C)NC)C3)c2)CCC2CCC(C(=O)NC(c3ccccc3)c3ccccc3)N2C1=O
< 7.00: pIC50 [1] | pIC50 [2] | pIC50 [3] | pIC50 [4] | pIC50 [5] | pIC50 [6]
inactive: viability, T/C (second compound 0.00316 µM, first compound 0.000316 µM) 96.2% | viability, T/C (second compound 0.00316 µM, first compound 0.001 µM) 91.7% | viability, T/C (second compound 0.00316 µM, first compound 0.00316 µM) 104% | viability, T/C (second compound 0.00316 µM, first compound 0.01 µM) 97% | viability, T/C [7] 97.6% | viability, T/C [8] 94.2% | viability, T/C (second compound 0.01 µM, first compound 0.000316 µM) 97.6% | viability, T/C (second compound 0.01 µM, first compound 0.001 µM) 86.7% | viability, T/C (second compound 0.01 µM, first compound 0.00316 µM) 95.9% | viability, T/C (second compound 0.01 µM, first compound 0.01 µM) 101% | viability, T/C [9] 99.3% | viability, T/C [10] 90.5% | viability, T/C (second compound 0.0316 µM, first compound 0.000316 µM) 106% | viability, T/C (second compound 0.0316 µM, first compound 0.001 µM) 94.9% | viability, T/C (second compound 0.0316 µM, first compound 0.00316 µM) 91.5% | viability, T/C (second compound 0.0316 µM, first compound 0.01 µM) 99.3% | viability, T/C [11] 97.2% | viability, T/C [12] 97.1% | viability, T/C (second compound 0.1 µM, first compound 0.000316 µM) 95% | viability, T/C (second compound 0.1 µM, first compound 0.001 µM) 88.6% | viability, T/C (second compound 0.1 µM, first compound 0.00316 µM) 87.6% | viability, T/C (second compound 0.1 µM, first compound 0.01 µM) 85.3% | viability, T/C [13] 96.1% | viability, T/C [14] 96.7% | viability, T/C (second compound 0.316 µM, first compound 0.000316 µM) 109% | viability, T/C (second compound 0.316 µM, first compound 0.001 µM) 92% | viability, T/C (second compound 0.316 µM, first compound 0.00316 µM) 88.7% | viability, T/C (second compound 0.316 µM, first compound 0.01 µM) 97.5% | viability, T/C [15] 95.9% | viability, T/C [16] 91.2% | viability, T/C (second compound 1 µM, first compound 0.000316 µM) 93.5% | viability, T/C (second compound 1 µM, first compound 0.001 µM) 80.2% | viability, T/C (second compound 1 µM, first compound 0.00316 µM) 87% | viability, T/C (second compound 1 µM, first compound 0.01 µM) 87.3% | viability, T/C [17] 109% | viability, T/C [18] 85.2%

C=CC(=O)N1CCN(c2nc(=O)n(-c3c(C)ccnc3C(C)C)c3nc(-c4c(O)cccc4F)c(F)cc23)C(C)C1 (stereo unspecified) + CNC(C)C(=O)NC1CN(S(=O)(=O)c2cccc(S(=O)(=O)N3CCC4CCC(C(=O)NC(c5ccccc5)c5ccccc5)N4C(=O)C(NC(=O)C(C)NC)C3)c2)CCC2CCC(C(=O)NC(c3ccccc3)c3ccccc3)N2C1=O
< 5.00: pIC50 [1] | pIC50 [2] | pIC50 [3] | pIC50 [4] | pIC50 [5] | pIC50 [6]
inactive: viability, T/C [7] 67.7% | viability, T/C [8] 59.1% | viability, T/C (second compound 0.00316 µM, first compound 0.316 µM) 61.1% | viability, T/C (second compound 0.00316 µM, first compound 1 µM) 57.4% | viability, T/C (second compound 0.00316 µM, first compound 3.16 µM) 66.1% | viability, T/C (second compound 0.00316 µM, first compound 10 µM) 60.2% | viability, T/C [9] 66.5% | viability, T/C [10] 70.6% | viability, T/C (second compound 0.01 µM, first compound 0.316 µM) 56.9% | viability, T/C (second compound 0.01 µM, first compound 1 µM) 69.8% | viability, T/C (second compound 0.01 µM, first compound 3.16 µM) 55.9% | viability, T/C (second compound 0.01 µM, first compound 10 µM) 70.3% | viability, T/C [11] 83.4% | viability, T/C [12] 67.7% | viability, T/C (second compound 0.0316 µM, first compound 0.316 µM) 62.4% | viability, T/C (second compound 0.0316 µM, first compound 1 µM) 60.6% | viability, T/C (second compound 0.0316 µM, first compound 3.16 µM) 62% | viability, T/C (second compound 0.0316 µM, first compound 10 µM) 67.2% | viability, T/C [13] 76.3% | viability, T/C [14] 60.5% | viability, T/C (second compound 0.1 µM, first compound 0.316 µM) 66.7% | viability, T/C (second compound 0.1 µM, first compound 1 µM) 58.8% | viability, T/C (second compound 0.1 µM, first compound 3.16 µM) 63.9% | viability, T/C (second compound 0.1 µM, first compound 10 µM) 61.3% | viability, T/C [15] 64.3% | viability, T/C [16] 65.8% | viability, T/C (second compound 0.316 µM, first compound 0.316 µM) 56.9% | viability, T/C (second compound 0.316 µM, first compound 1 µM) 54.9% | viability, T/C (second compound 0.316 µM, first compound 3.16 µM) 63.2% | viability, T/C (second compound 0.316 µM, first compound 10 µM) 64.3% | viability, T/C [17] 60.1% | viability, T/C [18] 61.1% | viability, T/C (second compound 1 µM, first compound 0.316 µM) 57.9% | viability, T/C (second compound 1 µM, first compound 1 µM) 60.3% | viability, T/C (second compound 1 µM, first compound 3.16 µM) 59% | viability, T/C (second compound 1 µM, first compound 10 µM) 56.6%

NC(=O)C(=Cn1cnc(-c2cc(C(F)(F)F)cc(C(F)(F)F)c2)n1)c1cncnc1
< 6.52: pIC50 (curve of compound)
inactive: viability, T/C (compound 0.000949 µM) 105% and 108% and 73.8% | viability, T/C (compound 0.003 µM) 91.3% and 106% and 96.3% | viability, T/C (compound 0.00949 µM) 101% and 105% and 88.4% | viability, T/C (compound 0.03 µM) 93.7% and 89% and 82.1% | viability, T/C (compound 0.0949 µM) 86.4% and 80.2% and 77.3% | viability, T/C (compound 0.3 µM) 57.8% and 57% and 75.2%
